Data as given in patent publication US7189746B2, “Methods for promoting wound healing” (GliaMed, Inc., priority 2002, dated 2007).
Entries after “also recorded” stand apart in the source; their conditions may differ.

What was measured:
[1] = test system: epidermis; assay: Epidermal thickness after full-thickness skin biopsy and topical treatment; assay type: in vivo, mice; details: topical daily for 8 days in DMSO-based vehicle, rebiopsy, H&E
Procedure: FIG. 4 illustrates that topical treatment with GM-284 increases epidermal thickness in vivo. Eight days after full-thickness skin biopsies and daily treatment with vehicle, FK506, or GM-284, the original biopsy sites were rebiopsied and stained with hemotoxylin and eosin.
To examine this possibility, 5-mm, full-skin thickness biopsies were taken from the hindquarters of both male and female ICR retired breeders. The wounds were treated daily, for 8 days, with topical administration of either the DMSO-based vehicle, or FK506 or GM-284 in the vehicle. Thereafter, the original biopsy site was rebiopsied. […] In contrast, the epidermis of the GM-284-treated animals was much thicker, and appeared to be much more cellular, than the epidermis of animals under the other two conditions (FIG. 4, panel c).

[2] = test system: hair follicles and sebaceous glands; assay: Histology of adenexal structures and sebaceous cell volume after skin biopsy and topical treatment; assay type: in vivo, mice; details: topical daily, 8 days
Procedure: (A) Eight days following full-thickness skin biopsies and daily treatment with either vehicle or a 1 μM solution of GM-284, the original biopsy sites were rebiopsied and stained with hemotoxylin and eosin. […] Micrographs from the two treatment groups were scanned, and the volume of sebaceous cells was measured in voxels (n=>300 cells per treatment group). The resulting data were binned by 3000-voxel increments.
Using the topical-application-following-skin-biopsy paradigm detailed above, the lateral aspects of the original lesions were rebiopsied 8 days after the original lesions. The tissues were immersion-fixed, dehydrated through step gradients of alcohols, stained with hemotoxylin and eosin, and mounted for microscopic analysis, all following standard protocols. It is known that skin wounds in rodents heal inwards, from the perimeter, converging at a central point (Cohen, Stress and wound healing. Acta Anat. (Basel), 103:134–41, 1979). Therefore, the lateral edges of the original lesions were selected for analysis because these areas of tissue had the greatest opportunity to regenerate under the experimental conditions.
The volumes of the cells of the sebaceous glands were determined by scanning micrographs taken from animals treated with either GM-284 or vehicle for 8 days, and measuring cell size with the NIH Image program. […] There was an absence of smaller sebaceous cells in the GM-284 treatment group, and an absence of larger cells in the vehicle-treated group. […] Thus, given the cellular expansion in all three of these dermal compartments, it is likely that GM-284 acts at the level of the common stem cell.

[3] = test system: peripheral nerves; assay: Peripheral nerve regeneration after mechanical transection; assay type: in vivo; details: mechanical transection of peripheral nerves; earlier studies of the inventor
[4] = test system: human-foreskin keratinocytes; assay: Proliferation of cultured human-foreskin keratinocytes; assay type: cell-based
Procedure: Human keratinocytes were thawed, then either grown in the presence of increasing concentrations of GM-284, or grown in 5 μM FeSO4 as a positive control.
As detailed above, keratinocyte proliferation is influenced by a number of factors, including innervation (Hsieh and Lin, Modulation of keratinocyte proliferation by skin innervation. J. Invest. Dermatol., 113:579–86, 1999) and growth-factor treatment (Castagnino et al., Neu differentiation factor/heregulin induction by hepatocyte and keratinocyte growth factors. Oncogene, 19:640–48, 2000; and reviewed by Werner and Smola, Paracrine regulation of keratinocyte proliferation and differentiation. Trends Cell Biol., 11: 143–46, 2001). Thus, by culturing human-foreskin keratinocytes with increasing concentrations of GM-284, the inventor investigated the possibility that GM-284 was able to influence keratinocyte growth. […] This type of drug-dependent inhibition is consistent with the inventor's previous observation that a higher concentration of GM-284 blocks gene expression that is induced at a lower drug concentration (data not shown).

[5] = target: T1, recombinant FKBP52 (Homo sapiens, UniProt Q02790); assay: Binding affinity for recombinant FKBP52 by solution-phase tryptophan fluorescence (QTFS); details: read-out: disassociation constant (kd), binding affinity for recombinant FKBP52
T1 sequence (Q02790 1-459): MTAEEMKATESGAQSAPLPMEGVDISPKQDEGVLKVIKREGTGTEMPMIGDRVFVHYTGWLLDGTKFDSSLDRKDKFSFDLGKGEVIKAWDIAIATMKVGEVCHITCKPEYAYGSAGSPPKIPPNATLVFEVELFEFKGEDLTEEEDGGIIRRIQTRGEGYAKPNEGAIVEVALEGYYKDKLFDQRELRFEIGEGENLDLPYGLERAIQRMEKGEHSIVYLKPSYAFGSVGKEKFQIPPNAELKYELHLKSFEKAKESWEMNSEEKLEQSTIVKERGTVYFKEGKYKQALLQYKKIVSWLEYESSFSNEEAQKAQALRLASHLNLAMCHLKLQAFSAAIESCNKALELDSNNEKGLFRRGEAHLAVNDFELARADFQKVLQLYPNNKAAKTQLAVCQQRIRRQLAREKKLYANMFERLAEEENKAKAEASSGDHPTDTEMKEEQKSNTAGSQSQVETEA
From the text: Accordingly, in one embodiment of the present invention, the immunophilin ligand is FK506 or an FK506 analogue or derivative. As used herein, an “FK506 derivative” is a chemical substance derived from FK506, either directly or by modification, truncation, or partial substitution. FK506 and its analogues and derivatives may be produced synthetically. The FK506 derivative for use in the present invention may be nonimmunosuppressive. In a preferred embodiment of the present invention, the nonimmunosuppressive FK506 derivative is GM-284. This novel compound is a small molecule that effects transcriptional change in Schwann cells, and promotes wound healing and regeneration of epithelial tissue and nervous tissue, as described below. […] The structure of GM-284 is depicted in FIG. 9.

[6] = test system: 5-mm skin biopsies; assay: Closure of 5-mm skin biopsy wounds under daily topical treatment; assay type: in vivo, mice
Procedure: The foregoing results also raised the possibility that GM-284 might show similar effects if administered topically, directly to the surgical site. To investigate this possibility, 10 retired breeders—5 male mice and 5 female mice—were prepared for surgery, and were subjected to 5-mm skin biopsies using a disposable biopsy punch. After achieving hemostasis, the wounds were treated immediately with topical application of either GM-284 or vehicle, or received no treatment at all. The treatment was repeated daily.
During the experimental period, the wounds were photographed daily, and the photographs were scanned for […]. The open area of each wound was quantified using an image-analysis program, NIH Image.

[7] = test system: surgical wounds; assay: Healing of surgical wounds under daily gavage (systemic treatment); assay type: in vivo, mice
From the text: During these studies, the inventor serendipitously observed that the surgical wounds of animals treated systemically with GM-284 appeared dramatically different from those of either vehicle- or FK506-treated mice. […] Given the biochemical properties of GM-284, and the clinical uses of FK506 as a topical medication, the inventor investigated the ability of GM-284 to act as a healing accelerant when applied topically to full-thickness skin biopsies in mice.
These studies required surgical exposure of the right lower quadrant of all study animals. Following exposure of the sciatic nerve from the sciatic notch to the knee, and manipulation of the nerve, the muscle and overlaying skin were closed with suture material. Each animal was subsequently treated with a daily gavage of either GM-284 (5 mg/kg), FK506 (5 mg/kg), or methylcellulose vehicle alone.

[8] = test system: nerve fibers of injured skin; assay: Reinnervation and remyelination of healing skin (MBP and neuron-specific β-tubulin staining); assay type: in vivo, mouse; details: 8 days of treatment after biopsy
From the text: FIG. 6 illustrates that GM-284 induces rapid reinnervation of injured skin. (A) The inventor examined innervation of surgically damaged skin (biopsy) following 8 days of treatment with either GM-284 or vehicle. The skin sections were stained with an antibody that recognizes myelin basic protein (MBP). […] In contrast, healing skin which had been treated with vehicle alone still had no myelinated fibers, nor did the Langerhans cells appear to have any organization relative to the epidermis (right panel). (B) Unmyelinated fibers also innervate the skin, where the fibers extend into the epidermis. […] No such fibers were found in the vehicle-treated controls.
As shown above, GM-284 induces rapid healing of wounds; it does so, in part, by influencing the proliferation of cells within the dermis and epidermis. In addition, this compound has profound effects on the regeneration of peripheral nerves. The inventor has previously shown that, following crushing-nerve injury, GM-284 enhances nerve regeneration, acting on both the axon and the Schwann cell (data not shown). To investigate whether GM-284 also enhances sensory-nerve regeneration into skin following wounding, the inventor examined innervation of skin biopsies after 8 days of treatment with either GM-284 or vehicle. […]

[9] = test system: facial nerve; assay: Whisker movement after unilateral facial nerve compression; assay type: in vivo; details: rats, versus control
[10] = test system: epidermis of intact skin; assay: Topical treatment of intact shaved skin, with recovery period; assay type: in vivo
From the text: Either GM-284 or vehicle was applied to the dorsal skin on both sides of the animals, daily for 2 weeks. At that time, a 5-mm biopsy was taken from only one side, and all treatment was withheld. After an additional 2-week recovery period, a 5-mm biopsy was taken from the contralateral, intact side. […] 20×magnification
In order to test these effects, the inventor shaved the dorsal fur from over the hindquarters, bilaterally, and tattooed ˜5-mm circles on the skin. Either GM-284 or vehicle was applied daily, to both sides of the animals, for 2 weeks. After that time, a 5-mm biopsy was taken from only one side of each animal, and all treatment was withheld. After an additional 2-week “recovery period”, a 5-mm biopsy was taken from the intact side of each animal.

[11] = test system: neuregulin-α; assay: Neuregulin-α expression in keratinocytes of unwounded skin in situ; assay type: in vivo
From the text: FIG. 8 illustrates that GM-284 alters neuregulin gene expression. […] As expected, unwounded, vehicle-treated keratinocytes strongly express neuregulin-α (top panel).
As expected, unwounded, vehicle-treated keratinocytes strongly expressed neuregulin-α (FIG. 8, top panel).

## CCC(C)(C)C(=O)C(=O)N1CCC[C@H]1c1nnc([C@@H]2CCCN2C(=O)C(=O)C(C)(C)CC)o1 [GM-284]
[1]
  epidermal thickness versus vehicle (FIG. 4): marked increase in epidermal thickness; also recorded: much thicker
[2]; 1 μM solution
  number of hair follicles or sebaceous glands: no net increase in the number of hair follicles
[2]; 1 μM solution, versus vehicle
  hair follicle size and cellularity (FIG. 5A): large increase in the width and cellularity of the basal aspects of the hair follicles; also recorded: overall increase in hair-follicle size
  sebaceous gland size and cell number (FIG. 5A): much rounder, larger, and fuller than those of the controls; also recorded: increase in the size of sebaceous glands
[2]; >300 cells per group, versus vehicle
  sebaceous cell volume, binned by 3000-voxel increments (FIG. 5B): marked shift to the right; also recorded: absence of cells smaller than 3000 voxels
[3]
  axonal regeneration and myelination after nerve transection: enhances axonal regeneration and induces hypermyelination
[4]; 1 μM, after 14 days of treatment
  increase in rate of keratinocyte proliferation: more than 150%
[4]; 1 μM, after first passage and reseeding
  proliferative index of keratinocytes (FIG. 3): doubling of the proliferative index
[4]; 10 μM
  keratinocyte growth rate at 10 μM compared with 1 μM: completely ablated the pro-proliferative activity
[5]
  Kd: 0.139 µM
[6]; topical daily, D3 and D9
  granulation of wound edges: better granulated than the controls
[6]; topical daily, day 5
  closure rate, open wound area by NIH Image (FIG. 2): large difference in the closure rates
[6]; topical daily, day 9
  open wound size versus control groups, NIH Image (FIG. 2): approximately one-third the size of those of the control groups
[6]; topical daily, day 9, listed as GM284
  open wound size versus control groups, NIH Image (FIG. 2): approximately as completely healed as that of the two control groups
[6]; topical daily, third treatment day
  rate of wound closure, open wound area by NIH Image: closed approximately twice as fast as the control groups
[6]; topical, once daily, day 3
  wound closure versus control groups (FIG. 1): showed improvement by 3 days; also recorded: significantly more closed than the control groups
[6]; topical, once daily, day 9
  wound closure (FIG. 1): virtually closed by the ninth day
[7]; daily gavage 5 mg/kg, skin and muscle entered, blinded observer
  appearance and closure of surgical wounds: less erythemia and more rapid closure
[7]; mice treated systemically, controls vehicle or FK506
  rate of wound healing versus controls: healed at approximately twice the rate as the controls
[7]; muscle and overlying fascia left intact
  healing of surgical wounds, only the skin entered: same improved healing characteristics
[8]
  regeneration of myelinated (MBP-positive) fibers in injured skin (FIG. 6A): regained its pre-injury histology, with new, myelinated fibers running parallel to the epidermis
  regeneration of unmyelinated fibers into the epidermis (FIG. 6B): promotes regeneration of naked axons into the epidermis
[9]
  restoration of whisker movement: more rapidly restore whisker movement compared to control
[10]; 2 weeks treatment, then 2 weeks without treatment
  epidermal hypertrophy after recovery period (FIG. 7, lower): completely reversed
[10]; topical daily for 2 weeks
  epidermal thickness of intact skin (FIG. 7, top): resulted in epidermal hypertrophy
[11]; 2 weeks of topical treatment, unwounded skin
  keratinocyte neuregulin-α expression (FIG. 8): completely downregulated neuregulin-α expression
[11]; skin allowed to recover for 2 weeks, data not shown
  keratinocyte neuregulin-α expression after recovery: keratinocyte expression of neuregulin-α was restored
